Laboratory results taken from ChEMBL document CHEMBL3885861, “Open TG-GATES”.

Species: Rattus norvegicus
Experiment: Open TG-GATES - Regimen: Daily Repeat
Type: toxicity, organism-based, Sprague-Dawley
Design: regimen Daily Repeat, gender Male, age 6 weeks
Settings: in vivo, po, 50 mg/kg, route gavage, dose level Middle; for APTT / Bas / Eos / Fbg / Hb / Ht / Lym / MCH / MCHC / MCV / Mono / Neu / PT / Plat / RBC / Ret / WBC: tissue Blood; for KIDNEY_L / KIDNEY_R / KIDNEY_TOTAL: tissue Kidney; for LIVER: tissue Liver; for A/G / ALP / ALT / AST / BUN / CRE / Ca / Cl / DBIL / GLC / IP / K / LDH / Na / PL / RALB / TBIL / TC / TG / TP / gamma-GTP: tissue Plasma

CN(C)CCC=C1c2ccccc2CCc2ccccc21 [AMITRIPTYLINE]
TERMINAL_BW (72 h, time 3 day): 221 g | APTT (72 h, time 3 day): 16.6 s | Bas (72 h, time 3 day): 0.2% | Eos (72 h, time 3 day): 1% | Fbg (72 h, time 3 day): 279.2 mg/dL | Hb (72 h, time 3 day): 13.3 g/dL | Ht (72 h, time 3 day): 40% | Lym (72 h, time 3 day): 80.2% | MCH (72 h, time 3 day): 21 pg | MCHC (72 h, time 3 day): 33.3% | MCV (72 h, time 3 day): 63.1 fL | Mono (72 h, time 3 day): 2.6% | Neu (72 h, time 3 day): 15.6% | PT (72 h, time 3 day): 16.3 s | Plat (72 h, time 3 day): 120.1 x10_4/uL | RBC (72 h, time 3 day): 634.6 x10_4/ul | Ret (72 h, time 3 day): 6% | WBC (72 h, time 3 day): 115.2 x10_2/uL | KIDNEY_L (72 h, time 3 day): 0.9 g | KIDNEY_R (72 h, time 3 day): 0.9 g | KIDNEY_TOTAL (72 h, time 3 day): 1.8 g | LIVER (72 h, time 3 day): 10.1 g | A/G (72 h, time 3 day): 0.8 | ALP (72 h, time 3 day): 1628.8 IU/L | ALT (72 h, time 3 day): 49.4 IU/L | AST (72 h, time 3 day): 67.6 IU/L | BUN (72 h, time 3 day): 16 mg/dL | CRE (72 h, time 3 day): 0.2 mg/dL | Ca (72 h, time 3 day): 10.9 mg/dL | Cl (72 h, time 3 day): 105.6 meq/L | DBIL (72 h, time 3 day): 0.02 mg/dL | GLC (72 h, time 3 day): 180.6 mg/dL | IP (72 h, time 3 day): 7.8 mg/dL | K (72 h, time 3 day): 4.4 meq/L | LDH (72 h, time 3 day): 62.8 IU/L | Na (72 h, time 3 day): 143.8 meq/L | PL (72 h, time 3 day): 158.4 mg/dL | RALB (72 h, time 3 day): 2.6 g/dL | TBIL (72 h, time 3 day): 0.048 mg/dL | TC (72 h, time 3 day): 87 mg/dL | TG (72 h, time 3 day): 98.8 mg/dL | TP (72 h, time 3 day): 5.8 g/dL | gamma-GTP (72 h, time 3 day): 0.8 IU/L | TERMINAL_BW ([…], time 7 day): 255.7 g | TERMINAL_BW ([…], time 14 day): 305.2 g | TERMINAL_BW ([…], time 28 day): 359.5 g | APTT ([…], time 7 day): 15 s | Bas ([…], time 7 day): 0.4% | Eos ([…], time 7 day): 1% | Fbg ([…], time 7 day): 280.6 mg/dL | Hb ([…], time 7 day): 13.2 g/dL | Ht ([…], time 7 day): 40% | Lym ([…], time 7 day): 74.8% | MCH ([…], time 7 day): 20.7 pg | MCHC ([…], time 7 day): 33% | MCV ([…], time 7 day): 62.7 fL | Mono ([…], time 7 day): 2.8% | Neu ([…], time 7 day): 20.4% | PT ([…], time 7 day): 15.5 s | Plat ([…], time 7 day): 108.4 x10_4/uL | RBC ([…], time 7 day): 638 x10_4/ul | Ret ([…], time 7 day): 5.2% | WBC ([…], time 7 day): 119.8 x10_2/uL | APTT ([…], time 14 day): 16.5 s | Bas ([…], time 14 day): 0.2% | Eos ([…], time 14 day): 1% | Fbg ([…], time 14 day): 299 mg/dL | Hb ([…], time 14 day): 14.4 g/dL | Ht ([…], time 14 day): 43.2% | Lym ([…], time 14 day): 77.2% | MCH ([…], time 14 day): 20.2 pg | MCHC ([…], time 14 day): 33.4% | MCV ([…], time 14 day): 60.5 fL | Mono ([…], time 14 day): 2.8% | Neu ([…], time 14 day): 18.2% | PT ([…], time 14 day): 16.2 s | Plat ([…], time 14 day): 111 x10_4/uL | RBC ([…], time 14 day): 713.6 x10_4/ul | Ret ([…], time 14 day): 4% | WBC ([…], time 14 day): 107.8 x10_2/uL | APTT ([…], time 28 day): 20.1 s | Bas ([…], time 28 day): 0.8% | Eos ([…], time 28 day): 0.8% | Fbg ([…], time 28 day): 289.6 mg/dL | Hb ([…], time 28 day): 15.6 g/dL | Ht ([…], time 28 day): 45% | Lym ([…], time 28 day): 80.6% | MCH ([…], time 28 day): 19.6 pg | MCHC ([…], time 28 day): 34.6% | MCV ([…], time 28 day): 56.5 fL | Mono ([…], time 28 day): 2.4% | Neu ([…], time 28 day): 14.8% | PT ([…], time 28 day): 16.6 s | Plat ([…], time 28 day): 101.5 x10_4/uL | RBC ([…], time 28 day): 797.2 x10_4/ul | Ret ([…], time 28 day): 2.1% | WBC ([…], time 28 day): 134.2 x10_2/uL | KIDNEY_L ([…], time 7 day): 1.1 g | KIDNEY_R ([…], time 7 day): 1.1 g | KIDNEY_TOTAL ([…], time 7 day): 2.1 g | KIDNEY_L ([…], time 14 day): 1.2 g | KIDNEY_R ([…], time 14 day): 1.2 g | KIDNEY_TOTAL ([…], time 14 day): 2.3 g | KIDNEY_L ([…], time 28 day): 1.4 g | KIDNEY_R ([…], time 28 day): 1.4 g | KIDNEY_TOTAL ([…], time 28 day): 2.7 g | LIVER ([…], time 7 day): 11.1 g | LIVER ([…], time 14 day): 12.6 g | LIVER ([…], time 28 day): 14.2 g | A/G ([…], time 7 day): 0.8 | ALP ([…], time 7 day): 1561.4 IU/L | ALT ([…], time 7 day): 47.4 IU/L | AST ([…], time 7 day): 69 IU/L | BUN ([…], time 7 day): 15.8 mg/dL | CRE ([…], time 7 day): 0.2 mg/dL | Ca ([…], time 7 day): 10.9 mg/dL | Cl ([…], time 7 day): 104.6 meq/L | DBIL ([…], time 7 day): 0.012 mg/dL | GLC ([…], time 7 day): 187 mg/dL | IP ([…], time 7 day): 7.3 mg/dL | K ([…], time 7 day): 3.8 meq/L | LDH ([…], time 7 day): 66.4 IU/L | Na ([…], time 7 day): 143.6 meq/L | PL ([…], time 7 day): 156.4 mg/dL | RALB ([…], time 7 day): 2.6 g/dL | TBIL ([…], time 7 day): 0.046 mg/dL | TC ([…], time 7 day): 80.4 mg/dL | TG ([…], time 7 day): 114 mg/dL | TP ([…], time 7 day): 5.8 g/dL | gamma-GTP ([…], time 7 day): 1 IU/L | A/G ([…], time 14 day): 0.8 | ALP ([…], time 14 day): 1627.8 IU/L | ALT ([…], time 14 day): 43.4 IU/L | AST ([…], time 14 day): 69.6 IU/L | BUN ([…], time 14 day): 17 mg/dL | CRE ([…], time 14 day): 0.2 mg/dL | Ca ([…], time 14 day): 11 mg/dL | Cl ([…], time 14 day): 105.4 meq/L | DBIL ([…], time 14 day): 0.022 mg/dL | GLC ([…], time 14 day): 186.6 mg/dL | IP ([…], time 14 day): 7.2 mg/dL | K ([…], time 14 day): 4 meq/L | LDH ([…], time 14 day): 72.6 IU/L | Na ([…], time 14 day): 143.6 meq/L | PL ([…], time 14 day): 156.2 mg/dL | RALB ([…], time 14 day): 2.7 g/dL | TBIL ([…], time 14 day): 0.05 mg/dL | TC ([…], time 14 day): 77.4 mg/dL | TG ([…], time 14 day): 145.2 mg/dL | TP ([…], time 14 day): 6 g/dL | gamma-GTP ([…], time 14 day): 0.6 IU/L | A/G ([…], time 28 day): 0.8 | ALP ([…], time 28 day): 1098.4 IU/L | ALT ([…], time 28 day): 40.8 IU/L | AST ([…], time 28 day): 61.8 IU/L | BUN ([…], time 28 day): 17.2 mg/dL | CRE ([…], time 28 day): 0.2 mg/dL | Ca ([…], time 28 day): 10.3 mg/dL | Cl ([…], time 28 day): 104.2 meq/L | DBIL ([…], time 28 day): 0.018 mg/dL | GLC ([…], time 28 day): 186.6 mg/dL | IP ([…], time 28 day): 6.3 mg/dL | K ([…], time 28 day): 4 meq/L | LDH ([…], time 28 day): 62.4 IU/L | Na ([…], time 28 day): 141.6 meq/L | PL ([…], time 28 day): 139.8 mg/dL | RALB ([…], time 28 day): 2.8 g/dL | TBIL ([…], time 28 day): 0.058 mg/dL | TC ([…], time 28 day): 71.4 mg/dL | TG ([…], time 28 day): 108 mg/dL | TP ([…], time 28 day): 6.3 g/dL | gamma-GTP ([…], time 28 day): 0.6 IU/L
